# In patent US12447159B2 (AELIS FARMA, priority 2018, dated 2025):
# Marks after values point to notes of the source that are not given here.
# What was measured:
# [1] = system: THC dependent mice; assay: Precipitated withdrawal in mice chronically treated with THC; format: in vivo; conditions: mouse, in vivo
# Procedure: The chronic THC regimen (20 mg/kg, twice a day) used in these experiments has been chosen because it mimics heavy marijuana use (Cook et al., 1998) and is considered as a model of cannabinoids dependence in mice (Cutando et al., 2013; Hutcheson et al., 1998). […] From day 1 to 4-5, mice were injected ip with vehicle or THC (20 mg/kg in NaCl 0.9% containing 2% ethanol and 2% Tween80, 10 ml/kg) twice a day. […] All the other animals received the administration of the respective vehicle. […] The dose and schedule of administration of rimonabant chosen for this study has been commonly used to precipitate THC withdrawal in mice (Cook et al. 1998, Hutcheson et al., 1998, Huang et al., 2009).
# For the measure of precipitated withdrawal, mice were placed in a novel home cage and a video camera positioned in front of each cage recorded animals' behaviors. Scoring was performed for 1 minute every 5 min-period. Two withdrawal signs were analyzed: paw tremors and head shaking, since they are the most common signs of THC withdrawal observed in mice (Cook et al. 1998, Hutcheson et al., 1998, Lichtman et al., 2001).
# [2] = system: diet-induced obese (DIO) mouse model; assay: Repeated treatment: food intake and body weight in diet-induced obese (DIO) mice; format: in vivo; conditions: for Inhibition of food-intake and body weight (repeated administration): Effect (Rimonabant): 10 mg/kg
# Procedure: Male C57BL/6J mice were fed ad libitum with a high-fat diet (HFD) for 8 weeks before the start of the pharmacological treatments. During pharmacological treatments, the HFD was maintained and food intake and body weight were measured daily. The food consumed was calculated by subtracting the food left in the hoppers from the initial pre-weighted amount. […] 3pMBP and rimonabant were administered by oral gavage once a day, two hours before the start of the dark phase of the light/dark cycle.
# [3] = at doses quite close to the therapeutic dose; cited from earlier work
# [4] = system: corticosterone; conditions: from Steiner et al., 2008, cited from earlier work
# [5] = system: anxiety- and depression-related behaviors in mice; assay: Repeated administration: anxiety- and depression-related behaviors (elevated plus maze, sucrose preference test); format: in vivo; conditions: for Increase in anxiety and depression related behaviors (repeated administration): Effect (Rimonabant): 28 days, 10 mg/kg
# Procedure: The EPM apparatus was made of four elevated arms arranged in a cross-like disposition, with two opposite arms being enclosed by walls and the two other arms being open. For all the experiments, after receiving the appropriate treatment mice were placed in the center of the EPM and let free to explore the maze for 5 minutes. The time spent and the number of entries into the open arms and closed arms were measured by an automatic videotracking system. A decrease in the percentages of visits and/or of the time spent in open arms is considered an index of increase in anxiety levels.
# The sucrose preference test was performed in the home cage of the mice. Two identical bottles, one containing water and the other one containing a 2%-sucrose solution were placed in the hopper of each home cage. […] The volumes of water and of sucrose solutions drank by the mice were measured over two 1.30 h intervals, the first between 7.00 pm and 8.30 pm and the second between 8.30 pm and 10.00 pm. At each time point, the bottles were weighed and the intake volume was calculated by subtracting the initial bottle weight to the final bottle weight.
# At day 26, mice were subjected to the EPM and at day 28 to the sucrose preference test.
# [6] = system: diet-induced obese (DIO) mouse model; assay: Repeated treatment: food intake and body weight in diet-induced obese (DIO) mice; format: in vivo; conditions: vs vehicle; Rimo 10 mg/kg ip; 3pMBP 0.005-15 mg/kg per os
# [7] = molecular target: T1, progesterone receptor (Homo sapiens, UniProt P06401); assay: Binding selectivity, ligand displacement; conditions: 10 μM
# T1 construct: CEREP
# T1 sequence (P06401 whole entry): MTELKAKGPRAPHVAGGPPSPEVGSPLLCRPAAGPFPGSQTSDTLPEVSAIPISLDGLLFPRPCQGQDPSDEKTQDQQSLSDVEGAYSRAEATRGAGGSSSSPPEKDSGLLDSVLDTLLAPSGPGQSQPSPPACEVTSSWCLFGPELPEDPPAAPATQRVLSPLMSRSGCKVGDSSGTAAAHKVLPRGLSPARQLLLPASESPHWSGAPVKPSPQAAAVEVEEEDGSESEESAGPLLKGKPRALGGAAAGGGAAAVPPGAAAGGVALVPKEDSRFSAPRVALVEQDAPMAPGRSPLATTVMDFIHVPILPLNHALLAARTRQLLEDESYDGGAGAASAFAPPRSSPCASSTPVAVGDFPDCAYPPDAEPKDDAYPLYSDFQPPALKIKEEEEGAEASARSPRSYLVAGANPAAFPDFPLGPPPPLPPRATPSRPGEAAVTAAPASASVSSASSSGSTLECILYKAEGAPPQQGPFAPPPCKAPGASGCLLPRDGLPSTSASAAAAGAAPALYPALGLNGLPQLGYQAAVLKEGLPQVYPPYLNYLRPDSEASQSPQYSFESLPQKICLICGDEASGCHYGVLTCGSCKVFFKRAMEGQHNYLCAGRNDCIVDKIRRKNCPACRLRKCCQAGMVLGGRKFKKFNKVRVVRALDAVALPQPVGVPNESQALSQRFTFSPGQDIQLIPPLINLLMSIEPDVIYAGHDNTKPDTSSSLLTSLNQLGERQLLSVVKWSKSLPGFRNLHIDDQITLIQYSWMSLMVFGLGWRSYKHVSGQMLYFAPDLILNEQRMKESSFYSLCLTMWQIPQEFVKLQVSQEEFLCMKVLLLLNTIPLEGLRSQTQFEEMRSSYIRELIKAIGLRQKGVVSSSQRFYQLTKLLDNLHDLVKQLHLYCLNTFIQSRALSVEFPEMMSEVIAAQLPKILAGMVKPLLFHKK
# Description: (§1) The CEREP High-throughput profile consists of a broad collection of 80 transmembrane and soluble receptors, ion channels and G-Protein coupled receptors.
# [8] = molecular target: T2, peripheral benzodiazepine receptor (Rattus norvegicus, UniProt P16257); assay: Binding selectivity, ligand displacement; conditions: 10 μM
# T2 construct: CEREP
# Description: as §1
# [9] = system: central benzodiazepine receptor; assay: Binding selectivity, ligand displacement; conditions: 10 μM
# Description: as §1
# [10] = Metabolic profiling of [3H]-3pMBP in plasma and excreta in the rat (Radio-HPLC); conditions: in vivo
# Procedure: The metabolic profile was evaluated in plasma, in urines and feces and the radio-labelled metabolites were identified by their retention time using Radio-HPLC analysis. The results are expressed as % of the sum of all the detected peak areas.
# [11] = male mice, listed as rimonabant
# [12] = vs reference ID100 for rimonabant effects = 10 mg/kg
# [13] = 28 days once a day, 3pMBP 0.05, 5, 15 mg/kg per os, Rimo 10 mg/kg ip
smiles,measurement,setting,value
"Cc1c(C(=O)NN2CCCCC2)nn(-c2ccc(Cl)cc2Cl)c1-c1ccc(Cl)cc1 [Rimonabant, rimonabant]",IC100,[1],10 mg/kg
same,IC100,"[2]; Rimonabant, male mice",10 mg/kg
same,Inhibition of food-intake and body weight (repeated administration): Effect (Rimonabant),[2]; male mice,Yes
same,Inhibition of food-intake and body weight (repeated administration): Effect (Rimonabant),[2]; [11],decreased both food intake and body weight
same,N fold IC100,[2]; [12],1
same,Food intake in obese mice,"[2]; vs vehicle, Rimo 10 mg/kg ip, 3pMBP 0.005-15 mg/kg per os",decreases food intake
same,Adverse events in GLP safety and toxicity studies,[3],"clonic convulsion, hepatotoxicity and several profound alterations in behavior"
same,IC100,[4]; Rimonabant,2 mg/kg
same,Increase in glucocorticoid secretion: Effect (Rimonabant),[4]; mice,Yes
same,N fold IC100,[4]; vs reference ID100 for rimonabant = 10 mg/kg,0.2^#
same,Percentage of time spent in the open arms of the elevated plus maze,[5]; [13],decreases the time spent in open arms
same,Percentage of visits in the open arms of the elevated plus maze,[5]; [13],decreases the percentage of visits in open arms
same,Sucrose intake (sucrose preference test),[5]; [13],decreases sucrose intake
same,IC100,"[5]; Rimonabant, male mice",10 mg/kg
same,Increase in anxiety and depression related behaviors (repeated administration): Effect (Rimonabant),[5]; male mice,Yes
same,Increase in anxiety and depression related behaviors (repeated administration): Effect (Rimonabant),[5]; [11],increased anxiety and depression-related behavior
same,N fold IC100,[5]; [12],1
same,Body weight in obese mice,[6],decreases body weight
CC(=O)[C@H]1CC[C@H]2[C@@H]3CC=C4C[C@@H](O)CC[C@]4(C)[C@H]3CC[C@]12C [pregnenolone],displacement of binding,[7],> 80%
same,displacement of binding,[8],> 40%
same,displacement of binding,[9],> 40%
COc1ccc(CO[C@H]2CC[C@@]3(C)C(=CC[C@H]4[C@@H]5CC[C@H](C(C)=O)[C@@]5(C)CC[C@@H]43)C2)cc1 [[^3H]-3pMBP],Major metabolites in plasma,[10],does not produce any major metabolites in plasma
